According to US11459329B2, “Imidazopyridazine and imidazopyridine compounds and uses thereof” (Incyte Corporation, priority 2018, dated 2022):

Target: ALK2 (aa 147-end) (Homo sapiens (Human), UniProt Q04771)
Test: ALK2 HTRF Assay
Format: biochemical
Settings: not given
Protocol: The enzymatic assays were conducted in white 384-well polystyrene plates in a final volume of 8 μL. The inhibitors were serially diluted in DMSO and added to the plate wells prior to addition of the other reaction components. The assays were carried out at 25° C. in the assay buffer (50 mM HEPES, pH 7.0, 10% Glycerol, 0.01% Brij50, 10 mM MgCl2, 1 mM EGTA, 5 mM DTT, and 0.01% BSA), containing 50 nM LANCE Ultra ULight™-DNA Topoisomerase 2-alpha peptide (Perkin Elmer TRF0130), and 3 μM ATP. The final concentration of DMSO in the assay was 1% and the enzyme concentration was 0.5 nM for ALK2. […] […] IC50 determination was performed by fitting percent control activity versus the log of the inhibitor concentration using the IDBS XLFit and GraphPad Prism 5.0 software.

ALK2 (aa 147-end), sequence (Q04771 147-509): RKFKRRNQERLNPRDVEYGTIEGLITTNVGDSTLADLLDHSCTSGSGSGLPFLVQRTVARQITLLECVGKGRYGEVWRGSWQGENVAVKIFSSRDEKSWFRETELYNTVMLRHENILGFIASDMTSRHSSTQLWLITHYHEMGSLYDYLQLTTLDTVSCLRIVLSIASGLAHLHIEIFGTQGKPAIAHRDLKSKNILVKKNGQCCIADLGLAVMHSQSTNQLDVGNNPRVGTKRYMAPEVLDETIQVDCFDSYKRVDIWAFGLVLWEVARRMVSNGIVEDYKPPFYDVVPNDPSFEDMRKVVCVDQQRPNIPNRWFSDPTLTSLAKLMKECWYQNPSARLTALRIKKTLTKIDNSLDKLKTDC

Row | SMILES | IC50 [nM]
1 | Cc1nn2c(-c3ccnc4cc(N5CCOCC5)ccc34)cnc2cc1-c1ccc(N2CCNCC2)cc1 [Example 20, 4-(4-(6-methyl-7-(4-(piperazin-1-yl)phenyl)imidazo[1,2-b]pyridazin-3-yl)quinolin-7-yl)morpholine] | 1 to 5
2 | Cc1nn2c(-c3ccnc4cc(C#N)ccc34)cnc2cc1-c1ccc(N2CCNCC2)cc1 [Example 30, 4-(6-methyl-7-(4-(piperazin-1-yl)phenyl)imidazo[1,2-b]pyridazin-3-yl)quinoline-7-carbonitrile] | 5 to 100

Same assay, conditions: 3 μM ATP, 0.5 nM ALK2, 2 hr, 25° C.; read-out: ALK2 IC50

Row | IC50 [nM] | SMILES
3 | 1 to 5 | CNC(=O)c1ccc2c(-c3cnc4cc(-c5ccc(N6CCNCC6)cc5)c(C)nn34)ccnc2c1 [Example 16, N-methyl-4-(6-methyl-7-(4-(piperazin-1-yl)phenyl)imidazo[1,2-b]pyridazin-3-yl)quinoline-7-carboxamide]
4 | 1 to 5 | Cc1nn2c(-c3ccnc4cc(-c5ccnc(CO)c5)ccc34)cnc2cc1-c1ccc(N2CCNCC2)cc1 [Example 19, (4-(4-(6-methyl-7-(4-(piperazin-1-yl)phenyl)imidazo[1,2-b]pyridazin-3-yl)quinolin-7-yl)pyridin-2-yl)methanol]
5 | 5 to 100 | Cc1nn2c(-c3ccnc4cc(N5CC6(CCOC6)C5)ccc34)cnc2cc1-c1ccc(N2CCNCC2)cc1 [Example 21, 2-(4-(6-methyl-7-(4-(piperazin-1-yl)phenyl)imidazo[1,2-b]pyridazin-3-yl)quinolin-7-yl)-6-oxa-2-azaspiro[3.4]octane]
6 | < 1 | Cc1nn2c(-c3ccnc4cc(Nc5cccnc5)ccc34)cnc2cc1-c1ccc(N2CCNCC2)cc1 [Example 22, 4-(6-methyl-7-(4-(piperazin-1-yl)phenyl)imidazo[1,2-b]pyridazin-3-yl)-N-(pyridin-3-yl)quinolin-7-amine]
7 | 5 to 100 | Cc1nn2c(-c3ccnc4cc(CN5CCOCC5)ccc34)cnc2cc1-c1ccc(N2CCNCC2)cc1 [Example 24, 4-((4-(6-methyl-7-(4-(piperazin-1-yl)phenyl)imidazo[1,2-b]pyridazin-3-yl)quinolin-7-yl)methyl)morpholine]
8 | 1 to 5 | Cc1nn2c(-c3ccnc4cc(C(O)c5cc(F)cc(F)c5)ccc34)cnc2cc1-c1ccc(N2CCNCC2)cc1 (stereo not shown) [Example 25, (3,5-difluorophenyl)(4-(6-methyl-7-(4-(piperazin-1-yl)phenyl)imidazo[1,2-b]pyridazin-3-yl)quinolin-7-yl)methanol]
9 | < 1 | Cc1nn2c(-c3ccnc4ncccc34)cnc2cc1-c1ccc(N2CCNCC2)cc1 [Example 27, 4-(6-methyl-7-(4-(piperazin-1-yl)phenyl)imidazo[1,2-b]pyridazin-3-yl)-1,8-naphthyridine]
10 | 5 to 100 | Cc1nn2c(-c3ccc(C#N)c4ncccc34)cnc2cc1-c1ccc(N2CCNCC2)cc1 [Example 28, 5-(6-methyl-7-(4-(piperazin-1-yl)phenyl)imidazo[1,2-b]pyridazin-3-yl)quinoline-8-carbonitrile]
11 | 5 to 100 | Cc1nn2c(-c3ccnc4cc(N5CCN6C(=O)CCC6C5)ccc34)cnc2cc1-c1cnn([C@H]2CC[C@H](O)CC2)c1 (stereo partly drawn) [Example 34, 2-(4-(7-(1-((1R,4R)-4-hydroxycyclohexyl)-1H-pyrazol-4-yl)-6-methylimidazo[1,2-b]pyridazin-3-yl)quinolin-7-yl)hexahydropyrrolo[1,2-a]pyrazin-6(2H)-one]
12 | < 1 | Cc1nn2c(-c3ccnc4nc(-c5ccccn5)ccc34)cnc2cc1-c1ccc(CN2CCC2)cc1 [Example 38, 5-(7-(4-(Azetidin-1-ylmethyl)phenyl)-6-methylimidazo[1,2-b]pyridazin-3-yl)-2-(pyridin-2-yl)-1,8-naphthyridine]
13 | 1 to 5 | Cc1nn2c(-c3ccnc4nc(-c5cnccn5)ccc34)cnc2cc1-c1cnn([C@H]2CC[C@H](O)CC2)c1 [Example 41, (1R,4R)-4-(4-(6-Methyl-3-(7-(pyrazin-2-yl)-1,8-naphthyridin-4-yl)imidazo[1,2-b]pyridazin-7-yl)-1H-pyrazol-1-yl)cyclohexan-1-ol]
14 | 1 to 5 | Cc1nn2c(-c3ccnc4nc(-c5cnccn5)ccc34)cnc2cc1-c1cnn(C(C)C)c1 [Example 43, 5-(7-(1-Isopropyl-1H-pyrazol-4-yl)-6-methylimidazo[1,2-b]pyridazin-3-yl)-2-(pyrazin-2-yl)-1,8-naphthyridine]
15 | 1 to 5 | Cc1nn2c(-c3ccnc4nc(-c5ccn(C)n5)ccc34)cnc2cc1-c1cnn(C(C)C)c1 [Example 45, 5-(7-(1-Isopropyl-1H-pyrazol-4-yl)-6-methylimidazo[1,2-b]pyridazin-3-yl)-2-(1-methyl-1H-pyrazol-3-yl)-1,8-naphthyridine]
16 | 5 to 100 | Cc1nn2c(-c3ccnc4nc(-c5ccn(C)n5)ccc34)cnc2cc1-c1ccc(CN2CCC2)cc1 [Example 46, 5-(7-(4-(Azetidin-1-ylmethyl)phenyl)-6-methylimidazo[1,2-b]pyridazin-3-yl)-2-(1-methyl-1H-pyrazol-3-yl)-1,8-naphthyridine]

Further lines, the molecule ahead of its results:

Row | SMILES | IC50 [nM]
17 | Cc1nn2c(-c3ccnc4cc(C(=O)N5CCN(C)CC5)ccc34)cnc2cc1-c1ccc(N2CCNCC2)cc1 [Example 17, (4-(6-methyl-7-(4-(piperazin-1-yl)phenyl)imidazo[1,2-b]pyridazin-3-yl)quinolin-7-yl)(4-methylpiperazin-1-yl)methanone] | > 100
18 | Cc1nn2c(-c3ccnc4cc(-c5ccn(C)n5)ccc34)cnc2cc1-c1ccc(N2CCNCC2)cc1 [Example 18, 7-(1-methyl-1H-pyrazol-3-yl)-4-(6-methyl-7-(4-(piperazin-1-yl)phenyl)imidazo[1,2-b]pyridazin-3-yl)quinoline] | 1 to 5
19 | CC(=O)N1CCN(c2ccc3c(-c4cnc5cc(-c6ccc(N7CCNCC7)cc6)c(C)nn45)ccnc3c2)CC1 [Example 23, 1-(4-(4-(6-methyl-7-(4-(piperazin-1-yl)phenyl)imidazo[1,2-b]pyridazin-3-yl)quinolin-7-yl)piperazin-1-yl)ethan-1-one] | 5 to 100
20 | Cc1nn2c(-c3ccnc4cc(CO)ccc34)cnc2cc1-c1ccc(N2CCNCC2)cc1 [Example 26, (4-(6-methyl-7-(4-(piperazin-1-yl)phenyl)imidazo[1,2-b]pyridazin-3-yl)quinolin-7-yl)methanol] | 5 to 100
21 | Cc1nn2c(-c3ccnc4c3OCCO4)cnc2cc1-c1ccc(N2CCNCC2)cc1 [Example 29, 8-(6-methyl-7-(4-(piperazin-1-yl)phenyl)imidazo[1,2-b]pyridazin-3-yl)-2,3-dihydro-[1,4]dioxino[2,3-b]pyridine] | < 1
22 | Cc1nn2c(-c3ccnc4c(C(=O)NCCO)cccc34)cnc2cc1-c1ccc(N2CCNCC2)cc1 [Example 31, N-(2-hydroxyethyl)-4-(6-methyl-7-(4-(piperazin-1-yl)phenyl)imidazo[1,2-b]pyridazin-3-yl)quinoline-8-carboxamide] | > 100
23 | Cc1nn2c(-c3ccnc4c3CCN4C(=O)c3ccncc3)cnc2cc1-c1cnn(C2CCOCC2)c1 [Example 32, (4-(6-methyl-7-(1-(tetrahydro-2H-pyran-4-yl)-1H-pyrazol-4-yl)imidazo[1,2-b]pyridazin-3-yl)-2,3-dihydro-1H-pyrrolo[2,3-b]pyridin-1-yl)(pyridin-4-yl)methanone] | 5 to 100
24 | CC(=O)N1C[C@@H]2C[C@H]1CN2c1ccc2c(-c3cnc4cc(-c5cnn([C@H]6CC[C@H](O)CC6)c5)c(C)nn34)ccnc2c1 [Example 33, 1-((1S,4S)-5-(4-(7-(1-((1R,4R)-4-hydroxycyclohexyl)-1H-pyrazol-4-yl)-6-methylimidazo[1,2-b]pyridazin-3-yl)quinolin-7-yl)-2,5-diazabicyclo[2.2.1]heptan-2-yl)ethan-1-one] | 5 to 100
25 | Cc1cn2c(-c3ccnc4ccccc34)cnc2cc1-c1cnn(C2CCNCC2)c1 [Example 35, 4-(6-methyl-7-(1-(piperidin-4-yl)-1H-pyrazol-4-yl)imidazo[1,2-a]pyridin-3-yl)quinoline] | 1 to 5
26 | Cc1cn2c(-c3ccc(C(N)=O)c(F)c3)cnc2cc1-c1cnn(C2CCNCC2)c1 [Example 36, 2-fluoro-4-(6-methyl-7-(1-(piperidin-4-yl)-1H-pyrazol-4-yl)imidazo[1,2-a]pyridin-3-yl)benzamide] | < 1
27 | Cc1nn2c(-c3ccnc4nc(-c5ccccn5)ccc34)cnc2cc1-c1cnn([C@H]2CC[C@H](O)CC2)c1 [Example 37, (1R,4R)-4-(4-(6-Methyl-3-(7-(pyridin-2-yl)-1,8-naphthyridin-4-yl)imidazo[1,2-b]pyridazin-7-yl)-1H-pyrazol-1-yl)cyclohexan-1-ol] | < 1
28 | CCn1cc(-c2cc3ncc(-c4ccnc5nc(-c6ccccn6)ccc45)n3nc2C)cn1 [Example 39, 5-(7-(1-Ethyl-1H-pyrazol-4-yl)-6-methylimidazo[1,2-b]pyridazin-3-yl)-2-(pyridin-2-yl)-1,8-naphthyridine] | 1 to 5
29 | Cc1nn2c(-c3ccnc4nc(-c5ncccn5)ccc34)cnc2cc1-c1cnn(C(C)C)c1 [Example 40, 5-(7-(1-Isopropyl-1H-pyrazol-4-yl)-6-methylimidazo[1,2-b]pyridazin-3-yl)-2-(pyrimidin-2-yl)-1,8-naphthyridine] | < 1
30 | Cc1nn2c(-c3ccnc4nc(-c5cnccn5)ccc34)cnc2cc1-c1ccc(CN2CCC2)cc1 [Example 42, 5-(7-(4-(Azetidin-1-ylmethyl)phenyl)-6-methylimidazo[1,2-b]pyridazin-3-yl)-2-(pyrazin-2-yl)-1,8-naphthyridine] | 1 to 5
31 | Cc1nn2c(-c3ccnc4nc(-c5cnccn5)ccc34)cnc2cc1-c1cnn(C2CCOCC2)c1 [Example 44, 5-(6-Methyl-7-(1-(tetrahydro-2H-pyran-4-yl)-1H-pyrazol-4-yl)imidazo[1,2-b]pyridazin-3-yl)-2-(pyrazin-2-yl)-1,8-naphthyridine] | 1 to 5
